According to patent EP3272768A1, “CHIMERIC PEPTIDES USEFUL IN MALARIA PROPHYLAXIS OR TREATMENT” (priority 2016, dated 2018):
Peptide text beside a SMILES is read from it.

Tested on: primary human hepatocytes
Format: cell-based
Method: A) Overlapping dodecapeptides with two amino acid shift covering the whole […] PfLRR1 protein were bound to a solid support. The membrane was incubated sequentially with PP1 protein, and anti- PP1 antibody, followed by a peroxidase-labeled secondary antibody. […] PfLRR1.1 and PfLRR1.2 are shown. B) PP1 sequence alignment between human and P. falciparum species (SEQ ID NO:16 and 15). • Figures 2A and 2B show in vitro cell viability assay. Primary hepatocytes were treated with or without various concentrations of […] or […] peptides. Absorbance was recorded 72h after. […] The assay was done using parasitemia of 0.5% and hematocrit of 1%. The peptides were added at various concentrations and incubated for 48h and then, fixed. Samples were analyzed by flow cytometry. Results are expressed as percentage of growth inhibition. • Figures 4A and 4B show in vitro effect of chimeric peptides PfLRR1.1 (peptide 1) and PfLRR1.2 (peptide 2) on the hepatic stage of the P. falciparum. […] The culture was fixed with paraformaldehyde (PFA) and analysed by fluorescence microscopy. • Figures 5A and 5B show in vitro effect of peptides PfLRR1.1 and PfLRR1.2 on the hepatic stage of the P. vivax. […] The culture was fixed with PFA and analysed by fluorescence microscopy.
The cell viability was determined using a colorimetric assay based on 3-(4,5-dimethylthiazol- 2-yl)-2,5 diphenyltetrazolium bromide (MTT). […]

Structure (SMILES) | toxicity for the host cell (primary human hepatocyte)
CC[C@H](C)[C@H](NC(=O)[C@H](CCCCN)NC(=O)[C@H](CCCCN)NC(=O)[C@H](CCCCN)NC(=O)[C@H](CCCCN)NC(=O)[C@@H](N)C(C)C)C(=O)N[C@@H](CCCCN)C(=O)N[C@@H](C)C(=O)N[C@@H](CCC(=O)O)C(=O)N[C@H](C(=O)N[C@@H](CCCCN)C(=O)N[C@H](C(=O)N[C@@H](CCC(=O)O)C(=O)N[C@@H](CC(N)=O)C(=O)N[C@@H](Cc1ccc(O)cc1)C(=O)N[C@@H](CCCNC(=N)N)C(=O)N[C@@H](CCCCN)C(=O)N[C@H](C(=O)N[C@H](C(=O)N[C@H](C(=O)N[C@@H](Cc1c[nH]cn1)C(=O)N[C@H](C(=O)N[C@@H](CC(C)C)C(=O)N1CCC[C@H]1C(=O)N[C@@H](CCC(N)=O)C(=O)N[C@@H](CC(C)C)C(=O)N[C@@H](CCCCN)C(=O)N[C@@H](CCC(N)=O)C(=O)N[C@@H](CC(C)C)C(=O)N[C@@H](CC(=O)O)C(=O)N[C@@H](C)C(=O)N[C@@H](CC(C)C)C(=O)O)[C@@H](C)CC)[C@@H](C)CC)[C@@H](C)CC)[C@@H](C)O)[C@@H](C)CC)[C@@H](C)CC [PfLRR1.1] (H-VKKKKIKAEIKIENYRKTIIHILPQLKQLDAL-OH) | not toxic
CC[C@H](C)[C@H](NC(=O)[C@H](CCCCN)NC(=O)[C@H](CCCCN)NC(=O)[C@H](CCCCN)NC(=O)[C@H](CCCCN)NC(=O)[C@@H](N)C(C)C)C(=O)N[C@@H](CCCCN)C(=O)N[C@@H](C)C(=O)N[C@@H](CCC(=O)O)C(=O)N[C@H](C(=O)N[C@@H](CCCCN)C(=O)N[C@H](C(=O)N[C@H](C(=O)N[C@@H](CCC(=O)O)C(=O)N[C@@H](CC(N)=O)C(=O)N[C@@H](CC(C)C)C(=O)N[C@@H](CCC(N)=O)C(=O)N[C@@H](CC(N)=O)C(=O)N[C@@H](CS)C(=O)N[C@@H](CCCCN)C(=O)N[C@@H](CCCCN)C(=O)N[C@@H](CC(C)C)C(=O)N[C@@H](CCCNC(=N)N)C(=O)N[C@@H](CC(C)C)C(=O)N[C@@H](CC(C)C)C(=O)N[C@@H](CCC(=O)O)C(=O)N[C@@H](CC(C)C)C(=O)NCC(=O)N[C@@H](Cc1ccc(O)cc1)C(=O)N[C@@H](CC(N)=O)C(=O)N[C@@H](CCCCN)C(=O)N[C@H](C(=O)N[C@@H](CCCNC(=N)N)C(=O)N[C@@H](CCSC)C(=O)O)[C@@H](C)CC)[C@@H](C)CC)[C@@H](C)CC)[C@@H](C)CC [PfLRR1.2] (H-VKKKKIKAEIKIIENLQNCKKLRLLELGYNKIRM-OH) | not toxic
